From patent publication US20260226108A1, “FUSION POLYPEPTIDE AJ007 AND USE THEREOF” (NANJING ANJI BIOTECHNOLOGY CO, LTD., priority 2023, published 2026)
Residues, ends and D or L forms follow the SMILES beside them.

Experiment: Ocular tissue distribution at equimolar concentration, eye dropping or intravitreal injection (Example 5), ELISA
Format: in vivo, C57BL/6J mice
Text: This example provides an ocular tissue distribution comparison experiment of the polypeptide eye drops (AJ007 eye drops) in Example 2 with an equimolar concentration of the multifunctional fusion polypeptide VI (HM-1), a multifunctional fusion polypeptide VI preparation (HM-1 preparation, with a polypeptide being HM-1 and a formulation of other excipients being the same as the AJ007 eye drops), a fusion polypeptide AJ007 preparation (TAT-HM-1, with a polypeptide being AJ007 and pure water as a vehicle) after eye dropping, and the multifunctional fusion polypeptide VI (HM-1) after intravitreal injection, which is specifically described below.
Animal grouping: […] C57BL/6J mice were randomly divided into a total of 7 time point groups, including 0 h, 10 min, 1 h, 3 h, 7 h, 12 h, and 24 h, with 2 mice in each group.
Experimental process: All the mice in the eye drop administration groups were administered bilateral eye drops 1 time, with 5 μL of a corresponding drug solution dropped into each eye, while 5 μL of a corresponding drug solution was injected into both eyes in the HM-1 intravitreal injection group. At the 7 time points of 0 h, 10 min, 1 h, 3 h, 7 h, 12 h, and 24 h after the completion of administration, the mice in the corresponding groups were respectively subjected to eyeball removal and blood collection, the collected whole blood was immediately centrifuged at 6,000 rpm for 5 minutes, and then, a supernatant was sucked and stored as a sample to be tested. Additionally, 3 tissue sites, namely the vitreous body, the retina, and the RPE/choroid complex, were isolated from an eyeball under a stereomicroscope, into which PBS was added at 1:10 for dilution, followed by grinding and centrifugation at 12,000 rpm for 5 minutes. A supernatant was sucked to serve as a sample to be tested. Subsequently, the concentration of HM-1 or fusion polypeptide AJ007 in each tissue was detected by an ELISA method.

maintenance time at the RPE/choroid complex (intravitreal injection) | SMILES | maintenance time at the RPE/choroid complex (eye dropping)
 | C[C@H](NC(=O)CNC(=O)[C@H](CCCNC(=N)N)NC(=O)[C@H](CCCNC(=N)N)NC(=O)[C@H](CCCNC(=N)N)NC(=O)[C@H](CCCNC(=N)N)NC(=O)[C@H](CCC(N)=O)NC(=O)[C@H](CCCNC(=N)N)NC(=O)[C@H](CCCNC(=N)N)NC(=O)[C@H](CCCCN)NC(=O)[C@H](CCCCN)NC(=O)[C@H](CCCNC(=N)N)NC(=O)CNC(=O)[C@@H](N)Cc1ccc(O)cc1)C(=O)N[C@@H](CC(=O)O)C(=O)N[C@@H](CCCNC(=N)N)C(=O)N[C@@H](C)C(=O)NCC(=O)NCC(=O)NCC(=O)NCC(=O)N[C@@H](CCCNC(=N)N)C(=O)NCC(=O)N[C@@H](CC(=O)O)C(=O)O [AJ007] (H-YGRKKRRQRRRRGADRAGGGGRGD-OH; N-terminus and C-terminus assumed) | shorter
shorter | C[C@H](NC(=O)CNC(=O)[C@@H](N)CCCNC(=N)N)C(=O)N[C@@H](CC(=O)O)C(=O)N[C@@H](CCCNC(=N)N)C(=O)N[C@@H](C)C(=O)NCC(=O)NCC(=O)NCC(=O)NCC(=O)N[C@@H](CCCNC(=N)N)C(=O)NCC(=O)N[C@@H](CC(=O)O)C(=O)O [HM-1, Arg-Gly-Ala-Asp-Arg-Ala-Gly-Gly-Gly-Gly-Arg-Gly-Asp] (H-RGADRAGGGGRGD-OH; N-terminus and C-terminus assumed) | very short
